Test results reported in patent US10653672B2, “Myogenesis promotor, muscle atrophy inhibitor, medical composition and TAZ activator” (National University Corporation Tokyo Medical and Dental …, priority 2014, dated 2020).

Legend:
A431 cells = assay: Proliferation of A431 cells in 3D matrigel; assay type: cell-based; details: A431 cells in 2% BD Matrigel; 10 μM; 10 days; maximum diameter of 30 cell aggregates
Description: (2) Each well of a 96-well plate was pre-coated with 30 μL BD Matrigel (trade name, Becton, Dickinson and Company). A431 cells were suspended in the 2% BD Matrigel at a concentration of 2.1×10^6 cells/mL. This cell solution (140 μL) was added with 0.17 μL of 10 mM IBS008739 stock solution in DMSO or 0.17 μL of DMSO, and used to layer the pre-coated wells, and proliferation in the 3D matrigel was observed (see FIG. 12B). 300 of A431 cells were placed in each well of Ultra Low Attachment 96-well plate, and cultured in a serum-free DMEM-F-12 medium containing 10 ng/mL FGF, 5 μg/mL insulin and 0.1% (w/v) BSA. Formation of tumor spheres was observed under the condition with 10 mM IBS008739 stock solution dissolved in DMSO so that the final concentration was 10 μM, or the condition with DMSO of the same volume (see FIG. 12C). The maximum diameter of 30 cell aggregates of 150 μm or more observed in the 3D matrigel or sphere formation condition) are measured as the size of 3D colony or sphere. The results are shown in Table 10 and FIGS. 12B and 12C. The line in the figure is 200 μm. The line and the error bar indicate the average value and the standard error, and ns refers to not significant.
Observation of the spheres and the 3D matrigel cultivation were performed by the following processes. […]

Balb/c ByJ mice = assay: Recovery of cardiotoxin-induced muscle damage; assay type: in vivo, mouse; details: intraperitoneal injection of 100 mM stock on days 2, 4 and 6 after cardiotoxin; day 7
Description: Experiments were conducted with mice according to procedures approved by the Institutional Animal Case and Use Committee (see FIG. 9A to 9F). For the experiments, Balb/c ByJ mice (6 weeks, female) were used. The bar in the figures is 50 μm. The line and the error bar indicate the average value and the standard error, *p<0.05, i.e refers to intramuscular injection, and i.p refers to intraperitoneal injection.
(1) Cardiotoxin was diluted to 10 μM with phosphate buffered saline (PBS). The cardiotoxin solution (100 μl) was added with 0.3 μL of DMSO, or 0.3 μL of 10 mM IBS008738 stock solution in DMSO, respectively, and the solution was injected to the anterior tibial muscles on the right and the left, respectively. Three mice were used for one experiment, and the experiment was performed twice. The mice were sacrificed at day 5. […]
(3) Observation of muscle tissues was performed by fixing the anterior tibial muscle with 4% formalin and embedding the same in paraffin or O.C.T. compound, and staining muscle sections of 5 μm with haematoxylin and eosin. Further, Pax 7 was detected with anti-Pax 7 antibody and visualized with 3,3′-diaminobenzidine. […] The number of the Pax7-positive cells and the number of the centrally nucleated muscle fibers were counted at 6 fields at 20-fold magnification. […]

C2C12 cells = assay: Evaluation of myogenesis of C2C12 cells by fusion index; assay type: cell-based, mouse; details: differentiation condition 72 hours, DMSO as 1, average of three
Description: (1) C2C12 cells were grown to confluence under growth condition, and then in differentiation condition for 72 hours, in a culture medium added with DMSO, IBS008738 (exemplary compound 1) or exemplary compounds 2 to 44, at a concentration of 1 μM, 3 μM or 10 μM, respectively. Thereafter, the degree of myogenesis was evaluated by a fusion index (a value obtained by dividing the number of nuclei detected in multinucleated myosin heavy chain (MHC)-positive cells by the total number of the nuclei). Specifically, exemplary compounds were divided into five groups, and DMSO and IBS008738 were evaluated in each group as controls. The evaluation was conducted three times, and the average value and the standard deviation of the fusion index was relativized with the measured value of DMSO as 1.
C2C12 cells were passaged in a growth medium (DMEM containing 10% FBS) and differentiated in a differentiation medium (DMEM containing 2% horse serum (Invitrogen)).

Cc1ccc(-n2cnc(/N=C/N3CCOCC3)c2C(=O)c2ccccc2)cc1 [exemplary compound 1]
3D colony size, average size (μm) (A431 cells): 272.30 μm
number of the Pax7-positive cells compared with DMSO (Balb/c ByJ mice): greater
number of the centrally nucleated muscle fibers compared with DMSO (Balb/c ByJ mice): greater
relative fusion index (FI) (C2C12 cells; Group 1, 1 μM): 1.47
relative fusion index (FI) (C2C12 cells; Group 1, 3 μM): 1.89
relative fusion index (FI) (C2C12 cells; Group 1, 10 μM): 2.00
relative fusion index (FI) (C2C12 cells; Group 2, 1 μM): 1.33
relative fusion index (FI) (C2C12 cells; Group 2, 3 μM): 1.80
relative fusion index (FI) (C2C12 cells; Group 2, 10 μM): 2.03
relative fusion index (FI) (C2C12 cells; Group 3, 1 μM): 1.28
relative fusion index (FI) (C2C12 cells; Group 3, 3 μM): 1.67
relative fusion index (FI) (C2C12 cells; Group 3, 10 μM): 1.76
relative fusion index (FI) (C2C12 cells; Group 4, 1 μM): 1.13
relative fusion index (FI) (C2C12 cells; Group 4, 3 μM): 1.53
relative fusion index (FI) (C2C12 cells; Group 4, 10 μM): 1.68
relative fusion index (FI) (C2C12 cells; Group 5, 1 μM): 1.10
relative fusion index (FI) (C2C12 cells; Group 5, 3 μM): 1.18
relative fusion index (FI) (C2C12 cells; Group 5, 10 μM): 1.33
